Experiment: Hemolytic activity in mouse erythrocytes assessed as haemoglobin release at 10 uM incubated for 1 hrs by microplate reader method
Type: toxicity, cell-based, Erythrocyte
Settings: read-out: Activity

Question: For `CC[C@H](C)[C@H](NC(=O)CN)C(=O)NCC(=O)N[C@@H](C)C(=O)N[C@H](C(=O)N[C@@H](CC(C)C)C(=O)N[C@@H](CCCCN)C(=O)N[C@H](C(=O)N[C@@H](CC(C)C)C(=O)N[C@H](C(=O)N[C@H](C(=O)NCC(=O)N[C@@H](CC(C)C)C(=O)N1CCC[C@H]1C(=O)N[C@@H](C)C(=O)N[C@@H](CC(C)C)C(=O)N[C@H](C(=O)N[C@@H](CO)C(=O)N[C@@H](Cc1c[nH]c2ccccc12)C(=O)N[C@H](C(=O)N[C@@H](CCCCN)C(=O)N[C@@H](CCCNC(=N)N)C(=O)N[C@@H](CCCCN)C(=O)N[C@@H](CCCNC(=N)N)C(=O)N[C@@H](CCC(N)=O)C(=O)N[C@@H](CCC(N)=O)C(N)=O)[C@@H](C)CC)[C@@H](C)CC)[C@@H](C)O)[C@@H](C)O)C(C)C)C(C)C` [MELITTIN], which hemolysis at 1 h, 10 µM is on record?
Answer: Its hemolysis at 1 h, 10 µM is 58.8%.
